Results: patent publication US20250340881A1, “PHARMACEUTICAL COMPOSITION FOR TREATING CANCER COMPRISING FOXM1 MUTANT OR FOXM1 SHRNA” (Industry-University Cooperation Foundation Hanyang …, priority 2022, published 2025)

Assays:
Format in all cases: cell-based
A549 lung cancer cells [1] = test: Wound healing assay of A549 cells expressing FoxM1 phosphorylated point mutants; conditions: distance in the control group at 72 h set to 0%
Procedure: To observe the effects of phosphorylation point mutations on the motility of cancer cells, a wound healing assay was performed in lung cancer cells A549 expressing FoxM1 wild type (WT), phosphorylated point mutants S25E, S361E, and S715E, and a simultaneous triple-point mutation EEE protein.
Specifically, cells expressing the gene of FoxM1 point mutant by the lentivirus system were seeded into 6-well plates at 1×10^5 cells/well each. 24 hours after cell seeding, scratches were made at regular intervals using a 200 μl-pipette tip. In addition, A549 cells treated with mock as a negative control (Mock) and 5 ng/ml of TGF-β as a positive control were used. […] In addition, the distance in the control group at 72 h was set to 0%, and the relative distance was represented as a bar graph (FIG. 4G).

A549 lung cancer cells [2] = test: Transwell migration assay of A549 cells expressing FoxM1 WT or point mutants; conditions: Transwell, 72 hours, control set to 1; TGF-β 5 ng/ml positive control
Procedure: To examine the effects of FoxM1 WT, phosphorylation, and non-phosphorylated point mutants on the motility of cancer cells, the migration assay was performed in A549 lung cancer cells expressing mutant proteins.
Specifically, 5×10^4 cells of lung cancer cells A549 expressing each of WT, phosphorylation, and non-phosphorylated point mutant of FoxM1 were seeded in an 8.0 μm, 24 well insert, and the inserts were placed in a 24-well plate after medium with 10% fetal bovine serum (FBS) was dispensed in the 24-well plate. For the positive control, 0.5 ml of RPMI1640 (10% FBS) containing 5 ng/ml of TGF-β was used. After 72 hours from cell seeding, 500 μl of 4% paraformaldehyde was dispensed, washed three times with 1×PBS, and stained with 0.05% crystal violet solution for 5 minutes. After 5 minutes, the cells were washed five times with 1×PBS, and the staining intensity was measured using the Odyssey infrared imaging system.
Specifically, 5×10^4 cells of lung cancer cells A549 expressing control and FoxM1 WT were seeded in an 8.0 μm, 24 well insert, and the inserts were placed in a 24-well plate after medium with 10% fetal bovine serum (FBS) was dispensed in the 24-well plate. For the positive control, 0.5 ml of RPMI1640 (10% FBS) containing 5 ng/ml of TGF-β was added and used. After 72 hours from cell seeding, 500 μl of 4% paraformaldehyde was dispensed, washed three times with 1×PBS, and stained with 0.05% crystal violet solution for 5 minutes. After 5 minutes, the cells were washed five times with 1×PBS, and the staining intensity was measured using the Odyssey infrared imaging system.

A549 lung cancer cells [3] = test: Migration assay of TGF-β-treated A549 cells treated with peptide; conditions: TGF-β 5 ng/ml, 48 hours
Procedure: To determine the effects of treatment of the FoxM1 non-phosphorylated point mutant peptide on cancer cell motility in the metastatic environment treated with TGF-β, a migration assay was performed.
Specifically, 5×10^4 cells of A549 lung cancer cells were seeded in an 8.0 μm, 24 well insert, and the inserts were placed in a 24-well plate after medium with 10% fetal bovine serum (FBS) was dispensed in the 24-well plate. For the positive control, 0.5 ml of RPMI1640 (10% FBS) containing 5 ng/ml of TGF-β was dispensed, and 5 μM of the non-phosphorylated point mutant peptide was treated simultaneously. After 48 hours from cell seeding, 500 μl of 4% paraformaldehyde was dispensed into the plate, and the plate was washed three times with 1×PBS and stained with 0.05% crystal violet solution for 5 minutes. After 5 minutes, the plate was washed with 1×PBS five times, and the stained intensity was measured using the Odyssey infrared imaging system. When the stained intensity of the control group was set to 1, the relative stained intensity of each experimental group was represented in a graph.

Substance: TGF-β [reference compound]
- relative healing distance (motility) at 72 h (A549 lung cancer cells [1]): 51%
- cancer cell migration (stained intensity), increase compared to the control group (A549 lung cancer cells [2]): approximately 4 fold
- stained intensity (migration) compared to the control group (A549 lung cancer cells [3]): 4 folds
